The results in this text go back to ChEMBL document CHEMBL1909046, “DrugMatrix in vitro pharmacology data”.

One series addresses T1, Thromboxane-A synthase (Homo sapiens, UniProt P24557).
T1 sequence (P24557 whole entry): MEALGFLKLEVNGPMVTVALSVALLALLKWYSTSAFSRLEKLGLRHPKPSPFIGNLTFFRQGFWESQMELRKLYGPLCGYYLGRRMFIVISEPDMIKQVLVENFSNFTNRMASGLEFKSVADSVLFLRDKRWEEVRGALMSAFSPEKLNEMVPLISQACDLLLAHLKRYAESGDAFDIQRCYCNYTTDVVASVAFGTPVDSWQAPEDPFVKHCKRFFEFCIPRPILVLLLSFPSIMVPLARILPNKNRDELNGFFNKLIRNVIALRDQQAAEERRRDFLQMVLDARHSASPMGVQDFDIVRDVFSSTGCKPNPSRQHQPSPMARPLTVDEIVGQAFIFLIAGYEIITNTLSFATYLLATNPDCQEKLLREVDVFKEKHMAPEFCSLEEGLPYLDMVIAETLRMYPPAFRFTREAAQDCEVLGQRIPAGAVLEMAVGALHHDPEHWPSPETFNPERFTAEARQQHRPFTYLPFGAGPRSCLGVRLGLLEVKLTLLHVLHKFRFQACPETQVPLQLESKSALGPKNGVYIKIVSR
In words: biochemical. Format: tissue-based, Platelet. The settings on record: platelet.
In the case of `Cc1cc(NS(=O)(=O)c2ccc(N)cc2)no1` [SULFAMETHOXAZOLE], the IC50 result is “Not Active”.

Turning to `CN[C@@H]1[C@@H](O)[C@@H](O[C@@H]2[C@@H](O)[C@H](O[C@H]3OC(CN)=CC[C@H]3N)[C@@H](N)C[C@H]2N)OC[C@]1(C)O` [SISOMICIN], the IC50 entry is reported as “Not Active”.

Take `O=C1c2c(O)ccc(O)c2C(=O)c2c(NCCNCCO)ccc(NCCNCCO)c21` [MITOXANTRONE]: the IC50 result is “Not Active”.

Regarding `CSc1ccc2c(c1)N(CCC1CCCCN1C)c1ccccc1S2` (stereo not given) [THIORIDAZINE], the IC50 entry is recorded as “Not Active”.

Regarding `COc1cccc(C2(O)CCCCC2CN(C)C)c1` (stereo not given) [TRAMADOL], the IC50 entry is reported as “Not Active”.

Take `O=C(CCCN1CCC(O)(c2ccc(Cl)cc2)CC1)c1ccc(F)cc1` [HALOPERIDOL]: the IC50 entry is “Not Active”.

For `COS(C)(=O)=O` [METHANESULFONIC ACID METHYL ESTER], the IC50 entry is “Not Active”.

`CN1CCN2c3ccccc3Cc3ccccc3C2C1` (stereo not given) [MIANSERIN]: the IC50 entry is “Not Active”.

Tested on in the next series: not listed separately
In words: DRUGMATRIX: Tumor Necrosis Factor (TNF), Non-Selective radioligand binding (ligand: [125I] TNF-alpha). Format: cell membranes, Membrane. The settings on record: u-937; Not Active = under 50% inhibition at 10 µM.
With `Cc1cc(NS(=O)(=O)c2ccc(N)cc2)no1` [SULFAMETHOXAZOLE], the IC50 entry is on record as “Not Active” and the Ki result is given as “Not Active”.

In the case of `CN[C@@H]1[C@@H](O)[C@@H](O[C@@H]2[C@@H](O)[C@H](O[C@H]3OC(CN)=CC[C@H]3N)[C@@H](N)C[C@H]2N)OC[C@]1(C)O` [SISOMICIN], the IC50 entry is “Not Active” and the Ki result is given as “Not Active”.

Consider `O=C1c2c(O)ccc(O)c2C(=O)c2c(NCCNCCO)ccc(NCCNCCO)c21` [MITOXANTRONE], for which the IC50 result is “Not Active” and the Ki entry is reported as “Not Active”.

As for `COS(C)(=O)=O` [METHANESULFONIC ACID METHYL ESTER], the IC50 result is “Not Active” and the Ki result is “Not Active”.

In a further series the target is Cytochrome P450 2E1 (Homo sapiens, UniProt P05181). Note: in other assays of this panel Not Active means under 50% inhibition at 10 µM.
Sequence of Cytochrome P450 2E1 (P05181 whole entry): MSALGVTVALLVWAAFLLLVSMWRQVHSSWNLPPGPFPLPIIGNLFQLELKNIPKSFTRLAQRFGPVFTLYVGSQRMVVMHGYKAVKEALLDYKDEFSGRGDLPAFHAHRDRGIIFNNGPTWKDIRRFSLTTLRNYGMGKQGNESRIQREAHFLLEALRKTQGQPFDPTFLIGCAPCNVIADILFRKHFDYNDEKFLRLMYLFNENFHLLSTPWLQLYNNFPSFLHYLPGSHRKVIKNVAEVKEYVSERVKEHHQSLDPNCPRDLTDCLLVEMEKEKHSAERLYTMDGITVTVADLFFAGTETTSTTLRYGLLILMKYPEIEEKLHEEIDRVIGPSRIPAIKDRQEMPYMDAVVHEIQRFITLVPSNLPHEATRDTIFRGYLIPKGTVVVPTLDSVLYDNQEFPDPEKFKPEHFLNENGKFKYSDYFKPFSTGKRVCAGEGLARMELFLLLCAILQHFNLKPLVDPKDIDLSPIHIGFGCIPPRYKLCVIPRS
Assay: not given
Conditions: bti-tn-5b1-4.
Consider `Cc1cc(NS(=O)(=O)c2ccc(N)cc2)no1` [SULFAMETHOXAZOLE], for which the IC50 entry was “Not Active” and the Ki entry was “Not Active”.

In the case of `CSc1ccc2c(c1)N(CCC1CCCCN1C)c1ccccc1S2` (stereo not given) [THIORIDAZINE], the IC50 result is “Not Active” and the Ki entry was “Not Active”.

Consider `COc1cccc(C2(O)CCCCC2CN(C)C)c1` (stereo not given) [TRAMADOL], for which the IC50 entry was “Not Active” and the Ki result was “Not Active”.

For `O=C(CCCN1CCC(O)(c2ccc(Cl)cc2)CC1)c1ccc(F)cc1` [HALOPERIDOL], the IC50 result is recorded as “Not Active” and the Ki result is on record as “Not Active”.

`COS(C)(=O)=O` [METHANESULFONIC ACID METHYL ESTER]: the IC50 result is given as “Not Active” and the Ki result is “Not Active”.

For the molecule `CN1CCN2c3ccccc3Cc3ccccc3C2C1` (stereo not given) [MIANSERIN], the IC50 result was “Not Active” and the Ki result was “Not Active”.

The target of another series is Delta-type opioid receptor (Homo sapiens, UniProt P41143). Note: in other assays of this panel Not Active means under 50% inhibition at 10 µM.
Sequence of Delta-type opioid receptor (P41143 whole entry): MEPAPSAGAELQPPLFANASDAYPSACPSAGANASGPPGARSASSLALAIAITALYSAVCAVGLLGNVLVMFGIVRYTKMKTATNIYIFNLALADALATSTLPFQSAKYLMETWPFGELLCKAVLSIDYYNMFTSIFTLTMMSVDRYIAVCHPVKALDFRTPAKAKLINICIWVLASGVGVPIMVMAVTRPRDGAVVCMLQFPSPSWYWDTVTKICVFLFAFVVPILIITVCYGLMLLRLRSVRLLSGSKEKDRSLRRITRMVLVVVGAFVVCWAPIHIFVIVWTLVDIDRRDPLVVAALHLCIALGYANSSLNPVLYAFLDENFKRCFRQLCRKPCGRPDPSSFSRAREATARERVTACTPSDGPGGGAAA
Assay: not given
Format: cell membranes, HEK293, Membrane. The settings on record: hek293.
`Cc1cc(NS(=O)(=O)c2ccc(N)cc2)no1` [SULFAMETHOXAZOLE]: the IC50 entry was “Not Active”.

Regarding `CN[C@@H]1[C@@H](O)[C@@H](O[C@@H]2[C@@H](O)[C@H](O[C@H]3OC(CN)=CC[C@H]3N)[C@@H](N)C[C@H]2N)OC[C@]1(C)O` [SISOMICIN], the IC50 entry is “Not Active”.

As for `O=C1c2c(O)ccc(O)c2C(=O)c2c(NCCNCCO)ccc(NCCNCCO)c21` [MITOXANTRONE], the IC50 result is listed as “Not Active”.

`CSc1ccc2c(c1)N(CCC1CCCCN1C)c1ccccc1S2` (stereo not given) [THIORIDAZINE]: the IC50 entry is listed as “Not Active”.

On to `COc1cccc(C2(O)CCCCC2CN(C)C)c1` (stereo not given) [TRAMADOL], for which the IC50 result is recorded as “Not Active”.

As for `O=C(CCCN1CCC(O)(c2ccc(Cl)cc2)CC1)c1ccc(F)cc1` [HALOPERIDOL], the IC50 result was “Not Active”.

With `COS(C)(=O)=O` [METHANESULFONIC ACID METHYL ESTER], the IC50 result is given as “Not Active”.

For the molecule `CN1CCN2c3ccccc3Cc3ccccc3C2C1` (stereo not given) [MIANSERIN], the IC50 result is listed as “Not Active”.

The target in a further series is T2, Receptor-type tyrosine-protein phosphatase C (Homo sapiens, UniProt P08575).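 Note: inhibition of CD45 enzyme activity measured using DiFMUP as substrate; in other assays of this panel Not Active means under 50% inhibition at 10 µM.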
T2 sequence (P08575 whole entry): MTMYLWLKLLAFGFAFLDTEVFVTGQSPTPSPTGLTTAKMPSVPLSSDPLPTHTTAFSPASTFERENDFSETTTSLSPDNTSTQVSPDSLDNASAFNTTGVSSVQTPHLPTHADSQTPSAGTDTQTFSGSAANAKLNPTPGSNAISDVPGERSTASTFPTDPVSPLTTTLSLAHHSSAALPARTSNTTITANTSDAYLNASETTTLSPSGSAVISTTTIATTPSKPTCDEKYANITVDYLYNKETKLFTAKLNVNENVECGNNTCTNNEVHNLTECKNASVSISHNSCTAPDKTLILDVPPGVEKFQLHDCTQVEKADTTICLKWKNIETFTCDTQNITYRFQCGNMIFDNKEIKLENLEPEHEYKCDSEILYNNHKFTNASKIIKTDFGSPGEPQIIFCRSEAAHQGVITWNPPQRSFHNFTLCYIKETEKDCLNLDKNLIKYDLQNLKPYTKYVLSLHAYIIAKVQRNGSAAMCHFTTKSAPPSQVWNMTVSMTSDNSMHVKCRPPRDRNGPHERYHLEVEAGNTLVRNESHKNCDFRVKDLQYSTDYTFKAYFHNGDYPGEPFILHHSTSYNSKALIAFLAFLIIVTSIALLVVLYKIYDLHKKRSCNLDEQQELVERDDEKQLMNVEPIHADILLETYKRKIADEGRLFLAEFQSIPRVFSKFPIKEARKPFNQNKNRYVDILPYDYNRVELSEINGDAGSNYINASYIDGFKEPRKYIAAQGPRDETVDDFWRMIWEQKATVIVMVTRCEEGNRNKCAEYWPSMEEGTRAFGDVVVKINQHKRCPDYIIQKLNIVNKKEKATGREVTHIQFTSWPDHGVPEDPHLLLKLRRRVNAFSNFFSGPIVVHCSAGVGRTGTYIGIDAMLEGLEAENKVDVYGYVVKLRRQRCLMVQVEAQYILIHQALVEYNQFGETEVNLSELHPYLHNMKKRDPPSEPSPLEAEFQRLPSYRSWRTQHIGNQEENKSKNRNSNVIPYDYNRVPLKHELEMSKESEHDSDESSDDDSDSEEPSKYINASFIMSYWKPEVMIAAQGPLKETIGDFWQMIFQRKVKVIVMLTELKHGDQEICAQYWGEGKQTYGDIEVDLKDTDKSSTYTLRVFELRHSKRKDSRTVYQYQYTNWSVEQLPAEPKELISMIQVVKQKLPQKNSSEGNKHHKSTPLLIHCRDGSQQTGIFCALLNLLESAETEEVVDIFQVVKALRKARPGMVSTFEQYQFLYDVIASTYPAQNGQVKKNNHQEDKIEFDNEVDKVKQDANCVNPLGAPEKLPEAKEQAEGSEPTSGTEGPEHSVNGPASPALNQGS
Assay: not given
Also noted: species or system Escherichia coli.
Settings: not given
Regarding `Cc1cc(NS(=O)(=O)c2ccc(N)cc2)no1` [SULFAMETHOXAZOLE], the IC50 entry is “Not Active”.

In the case of `CN[C@@H]1[C@@H](O)[C@@H](O[C@@H]2[C@@H](O)[C@H](O[C@H]3OC(CN)=CC[C@H]3N)[C@@H](N)C[C@H]2N)OC[C@]1(C)O` [SISOMICIN], the IC50 entry is recorded as “Not Active”.

In the case of `O=C1c2c(O)ccc(O)c2C(=O)c2c(NCCNCCO)ccc(NCCNCCO)c21` [MITOXANTRONE], the IC50 result is “Not Active”.

For the molecule `CSc1ccc2c(c1)N(CCC1CCCCN1C)c1ccccc1S2` (stereo not given) [THIORIDAZINE], the IC50 result is “Not Active”.

For `COc1cccc(C2(O)CCCCC2CN(C)C)c1` (stereo not given) [TRAMADOL], the IC50 result is “Not Active”.

Turning to `O=C(CCCN1CCC(O)(c2ccc(Cl)cc2)CC1)c1ccc(F)cc1` [HALOPERIDOL], the IC50 result is listed as “Not Active”.

In the case of `COS(C)(=O)=O` [METHANESULFONIC ACID METHYL ESTER], the IC50 result was “Not Active”.

For the molecule `CN1CCN2c3ccccc3Cc3ccccc3C2C1` (stereo not given) [MIANSERIN], the IC50 result was “Not Active”.

Another series has as its target T3, Progesterone receptor (Bos taurus, UniProt Q690N0).
T3 sequence (Q690N0 whole entry): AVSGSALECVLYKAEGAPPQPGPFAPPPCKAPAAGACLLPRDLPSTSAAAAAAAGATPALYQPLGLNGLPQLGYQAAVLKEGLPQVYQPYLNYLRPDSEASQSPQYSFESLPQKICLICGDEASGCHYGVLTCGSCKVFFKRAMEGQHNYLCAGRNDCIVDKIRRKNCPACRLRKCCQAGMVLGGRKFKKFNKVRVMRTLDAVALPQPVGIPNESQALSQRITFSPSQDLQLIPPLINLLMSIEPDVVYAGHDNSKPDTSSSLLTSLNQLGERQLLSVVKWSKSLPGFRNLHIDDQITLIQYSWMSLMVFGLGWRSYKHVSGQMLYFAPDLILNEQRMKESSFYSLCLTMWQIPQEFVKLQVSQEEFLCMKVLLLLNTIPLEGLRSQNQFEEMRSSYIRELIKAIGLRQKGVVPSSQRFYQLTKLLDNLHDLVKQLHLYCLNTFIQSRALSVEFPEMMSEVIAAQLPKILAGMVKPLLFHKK
In words: DRUGMATRIX: Progesterone radioligand binding (ligand: [3H] R-5020). In kind it is tissue-based, Uterus. The settings on record: Not Active = under 50% inhibition at 10 µM.
Turning to `Cc1cc(NS(=O)(=O)c2ccc(N)cc2)no1` [SULFAMETHOXAZOLE], the IC50 entry was “Not Active”.

Consider `CN[C@@H]1[C@@H](O)[C@@H](O[C@@H]2[C@@H](O)[C@H](O[C@H]3OC(CN)=CC[C@H]3N)[C@@H](N)C[C@H]2N)OC[C@]1(C)O` [SISOMICIN], for which the IC50 entry is listed as “Not Active”.

Regarding `O=C1c2c(O)ccc(O)c2C(=O)c2c(NCCNCCO)ccc(NCCNCCO)c21` [MITOXANTRONE], the IC50 result was “Not Active”.

Turning to `CSc1ccc2c(c1)N(CCC1CCCCN1C)c1ccccc1S2` (stereo not given) [THIORIDAZINE], the IC50 entry is on record as “Not Active”.

In the case of `COc1cccc(C2(O)CCCCC2CN(C)C)c1` (stereo not given) [TRAMADOL], the IC50 entry is listed as “Not Active”.

As for `CN1CCN2c3ccccc3Cc3ccccc3C2C1` (stereo not given) [MIANSERIN], the IC50 entry is recorded as “Not Active”.
